Reference: ChEMBL document CHEMBL1143550, “A structural screening approach to ketoamide-based inhibitors of cathepsin K” (Bioorg Med Chem Lett, 2005)
Converted amounts (≈) assume the structure as drawn.

Legend:
[1] = molecular target: T1, Cathepsin K (Homo sapiens, UniProt P43235); assay: Inhibitory concentration against human cathepsin K
T1 sequence (P43235 whole entry): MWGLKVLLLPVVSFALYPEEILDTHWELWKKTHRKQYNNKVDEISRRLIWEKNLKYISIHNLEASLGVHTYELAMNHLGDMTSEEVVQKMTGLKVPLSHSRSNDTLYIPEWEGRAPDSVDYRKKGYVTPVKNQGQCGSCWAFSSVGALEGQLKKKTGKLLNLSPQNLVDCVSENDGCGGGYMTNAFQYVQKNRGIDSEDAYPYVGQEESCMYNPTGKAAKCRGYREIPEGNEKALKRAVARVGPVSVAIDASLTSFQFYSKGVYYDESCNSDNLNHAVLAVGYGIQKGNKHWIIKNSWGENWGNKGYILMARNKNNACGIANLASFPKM

[2] = molecular target: Cathepsin B (Homo sapiens, UniProt P07858); assay: Inhibitory concentration against human cathepsin B by fluorescence assay using 10 uM Cbz-Phe-Arg-AMC
[3] = molecular target: Procathepsin L (Homo sapiens, UniProt P07711); assay: Inhibitory concentration against human cathepsin L by fluorescence assay using 5 uM Cbz-Phe-Arg-AMC
[4] = molecular target: T2, Cathepsin L2 (Homo sapiens, UniProt O60911); assay: Inhibitory concentration against human cathepsin V by fluorescence assay using 2 uM Cbz-Phe-Arg-AMC
T2 sequence (O60911 whole entry): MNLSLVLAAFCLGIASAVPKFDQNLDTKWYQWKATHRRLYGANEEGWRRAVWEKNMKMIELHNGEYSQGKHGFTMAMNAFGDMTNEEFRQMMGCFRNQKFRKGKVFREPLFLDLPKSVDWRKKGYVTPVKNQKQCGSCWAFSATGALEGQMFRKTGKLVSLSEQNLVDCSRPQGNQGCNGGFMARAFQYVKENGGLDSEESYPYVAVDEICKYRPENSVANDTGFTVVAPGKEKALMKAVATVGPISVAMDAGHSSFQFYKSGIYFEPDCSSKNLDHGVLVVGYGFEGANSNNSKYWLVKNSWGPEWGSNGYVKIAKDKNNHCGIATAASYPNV

[5] = molecular target: Cathepsin S (Homo sapiens, UniProt P25774); assay: Inhibitory concentration against human cathepsin S by fluorescence assay using 10 uM Cbz-Val-Val-Arg-AMC
[6] = molecular target: T3, Pro-cathepsin H (Homo sapiens, UniProt P09668); assay: Inhibitory concentration against human cathepsin H by fluorescence assay using 50 uM L-Arg-b-naphthalamide
T3 sequence (P09668 whole entry): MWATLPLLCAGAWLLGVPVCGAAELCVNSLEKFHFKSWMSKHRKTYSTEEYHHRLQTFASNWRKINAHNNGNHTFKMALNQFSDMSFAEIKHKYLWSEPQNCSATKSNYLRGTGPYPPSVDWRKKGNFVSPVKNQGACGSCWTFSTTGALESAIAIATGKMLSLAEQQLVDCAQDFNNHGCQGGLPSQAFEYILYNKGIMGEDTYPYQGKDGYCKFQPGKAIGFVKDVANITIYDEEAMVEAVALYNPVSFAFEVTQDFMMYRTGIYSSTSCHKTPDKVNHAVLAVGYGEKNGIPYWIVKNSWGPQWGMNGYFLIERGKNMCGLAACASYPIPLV

[7] = Total clearance after intravenous administration of […] mg/kg in rats was determined; format: ADME, organism-based; conditions: rat, in vivo, 2.5 mg/kg, read-out: C1
[8] = Equilibrium solubility in fasted state-simulated intestinal fluid at pH 6.8 was determined; format: ADME
[9] = Half-life after intravenous administration of […] mg/kg in rats was determined; format: ADME, organism-based; conditions: rat, in vivo, 2.5 mg/kg
[10] = Steady state volume of distribution after intravenous administration of 2.5 mg/kg in rats was determined; format: ADME, organism-based; parameters: dose 2.5 mg/kg, route intravenous; conditions: rat, in vivo, read-out: Vss
[11] = Oral bioavailability in rat (dose 5 mg/kg p.o.); conditions: in vivo
[12] = solubility in fasted state stimulated intestinal fluid (pH6.8); format: ADME; conditions: rat, fasted state simulated intestinal fluid, pH 6.8

Chain of Procathepsin L (P07711 whole entry): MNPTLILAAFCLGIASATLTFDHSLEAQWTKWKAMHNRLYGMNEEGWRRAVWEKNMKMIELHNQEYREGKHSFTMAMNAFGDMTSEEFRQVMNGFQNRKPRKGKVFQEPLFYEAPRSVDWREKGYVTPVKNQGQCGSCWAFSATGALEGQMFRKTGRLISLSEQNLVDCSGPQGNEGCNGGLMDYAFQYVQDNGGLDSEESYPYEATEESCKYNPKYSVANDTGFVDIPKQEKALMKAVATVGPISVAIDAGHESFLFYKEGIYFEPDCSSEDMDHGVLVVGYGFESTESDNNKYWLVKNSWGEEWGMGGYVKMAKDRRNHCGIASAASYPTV
Chain of Cathepsin S (P25774 whole entry): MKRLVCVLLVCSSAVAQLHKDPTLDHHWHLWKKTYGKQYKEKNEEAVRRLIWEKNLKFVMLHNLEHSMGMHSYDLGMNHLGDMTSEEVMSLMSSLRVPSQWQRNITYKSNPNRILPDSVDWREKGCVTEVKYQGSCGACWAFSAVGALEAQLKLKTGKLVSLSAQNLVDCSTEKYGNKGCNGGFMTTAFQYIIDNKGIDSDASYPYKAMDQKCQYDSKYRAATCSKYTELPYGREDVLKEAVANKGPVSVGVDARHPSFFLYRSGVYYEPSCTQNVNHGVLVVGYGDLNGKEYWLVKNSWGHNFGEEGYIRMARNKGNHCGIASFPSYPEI

Row | IC50 [1] | IC50 [2] | IC50 [3] | IC50 [4] | IC50 [5] | IC50 [6] | clearance [7] | solubility thermodynamic [8] | half-life [9] | Vd [10] | bioavailability [11] | solubility [12] | SMILES
1 | 5.7 nM | 12000 nM | 1700 nM | 180 nM | 30 nM | > 13000 nM |  |  |  |  |  |  | CCCC[C@H](NC(=O)OC1C2(C)CCC(C2)C1(C)C)C(=O)C(=O)N[C@H](C)c1ccccc1 (some centres undefined)
2 | 2.5 nM | 1400 nM | 150 nM | 29 nM | 18 nM | > 13000 nM | 48 mL/min/kg | 800 µg/mL (≈ 1920 µM) | 62 min | 1.3 L/kg | 25% |  | CCCC[C@H](NC(=O)O[C@@H]1C(=O)NCC1(C)C)C(=O)C(=O)N[C@H](C)c1ccccc1
3 | 190 nM | > 13000 nM | 6800 nM | 2000 nM | 290 nM | > 13000 nM |  |  |  |  |  |  | CCCC[C@H](NC(=O)OC1C[C@H](C)C[C@@H](C)C1)C(=O)C(=O)N[C@H](C)c1ccccc1 (some centres undefined)
4 | 32 nM | > 2000 nM | 660 nM | 340 nM | 79 nM | > 2000 nM |  |  |  |  |  |  | CCCC[C@H](NC(=O)O[C@H]1CCCc2ccccc21)C(=O)C(=O)N[C@H](C)c1ccccc1
5 | 100 nM | > 13000 nM | 460 nM | 290 nM | 280 nM | > 13000 nM |  |  |  |  |  |  | CCCC[C@H](NC(=O)O[C@H]1CCc2ccccc21)C(=O)C(=O)N[C@H](C)c1ccccc1
6 | 26 nM | > 13000 nM | 1000 nM | 190 nM | 19 nM | > 13000 nM |  |  |  |  |  |  | CCCC[C@H](NC(=O)OC1CC2CCC1C2)C(=O)C(=O)N[C@H](C)c1ccccc1 (some centres undefined)
7 | 3 nM | > 500 nM | 410 nM | 79 nM | 13 nM | > 500 nM | 460 mL/min/kg |  | 11 min | 3.4 L/kg | 0% | 240 µg/mL (≈ 573 µM) | CCCC[C@H](NC(=O)O[C@@H]1C(=O)OCC1(C)C)C(=O)C(=O)N[C@H](C)c1ccccc1
8 | 7.2 nM | > 5000 nM | 2600 nM | 390 nM | 16 nM | > 5000 nM |  |  |  |  |  |  | CCCC[C@H](NC(=O)OC1C2CC3CC(C2)CC1C3)C(=O)C(=O)N[C@H](C)c1ccccc1 (some centres undefined)
9 | 350 nM | > 13000 nM | 4400 nM | 2800 nM | 63 nM | > 13000 nM |  |  |  |  |  |  | CCCC[C@H](NC(=O)O[C@@H]1C[C@H](C)C[C@H](C)C1)C(=O)C(=O)N[C@H](C)c1ccccc1
